Legend:
[1] = molecular target: SUMO activating enzyme (E1) (Homo sapiens (Human), UniProt Q9UBT2); experiment: Inhibitory effect on activating enzyme (E1), 15 min preincubation (Table 2); assay type: biochemical; details: enzyme preincubated with compound for 15 minutes; read-out: E1 biological activity
Description: Compounds are evaluated for their inhibitory effect on activating enzymes (E1) of ubiquitin, SUMO, Nedd8, Urm1, ISG15 or Atg7 using previously reported methods and protocols. One example is in: Allosteric inhibition of ubiquitin-like modifications by a class of inhibitor of SUMO-activating enzyme. Cell Chemical Biology, 26,1-11, 2019. PMID: 28051857. The enzyme was preincubated with the compounds for 15 minutes.

SAE1 = SAE1 (Homo sapiens (Human), UniProt Q9UBT2); experiment: SAE high throughput biochemical (HTRF) assay; details: 15 min preincubation; 100 µM ATP; read-out: 15 min preincubation HTRF IC50 (uM) Ave
Sequence of SAE1 (Q9UBE0 whole entry partner): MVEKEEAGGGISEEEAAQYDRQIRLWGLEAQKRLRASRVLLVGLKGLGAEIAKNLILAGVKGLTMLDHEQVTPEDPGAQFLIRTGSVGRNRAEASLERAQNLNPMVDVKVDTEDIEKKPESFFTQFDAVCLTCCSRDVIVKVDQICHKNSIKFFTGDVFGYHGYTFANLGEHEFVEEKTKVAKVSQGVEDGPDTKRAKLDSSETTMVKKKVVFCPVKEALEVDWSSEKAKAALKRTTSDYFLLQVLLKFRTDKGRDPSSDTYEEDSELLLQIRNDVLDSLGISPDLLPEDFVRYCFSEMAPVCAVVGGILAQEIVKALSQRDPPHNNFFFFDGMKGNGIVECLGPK
Sequence of SAE1 (Q9UBT2 whole entry): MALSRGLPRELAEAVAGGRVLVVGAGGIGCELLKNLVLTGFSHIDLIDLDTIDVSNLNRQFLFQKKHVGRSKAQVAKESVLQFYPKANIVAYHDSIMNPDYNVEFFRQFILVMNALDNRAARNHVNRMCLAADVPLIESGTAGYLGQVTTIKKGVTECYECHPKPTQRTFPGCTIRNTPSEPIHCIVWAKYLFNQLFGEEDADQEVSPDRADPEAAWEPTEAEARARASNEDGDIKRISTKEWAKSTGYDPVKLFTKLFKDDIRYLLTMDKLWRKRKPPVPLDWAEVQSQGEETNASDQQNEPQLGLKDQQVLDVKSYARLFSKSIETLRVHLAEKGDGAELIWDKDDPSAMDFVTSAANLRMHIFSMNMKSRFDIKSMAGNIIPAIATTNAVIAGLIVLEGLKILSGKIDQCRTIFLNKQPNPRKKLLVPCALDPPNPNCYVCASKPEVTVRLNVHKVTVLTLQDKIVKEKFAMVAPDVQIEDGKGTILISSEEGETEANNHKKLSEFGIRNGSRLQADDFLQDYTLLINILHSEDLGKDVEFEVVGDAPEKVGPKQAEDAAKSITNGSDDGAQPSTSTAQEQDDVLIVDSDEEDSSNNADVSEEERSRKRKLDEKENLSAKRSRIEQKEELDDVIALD
Description: Assay buffer was prepared [50 mM HEPES, pH 7.5, 0.1% BSA and 10 mM MgCl2] as was the Stop Buffer [100 mM HEPES, pH 7.5, 0.05% Tween20, and 410 mM KF]. The 2x Reaction Buffer [80 nM SUMO-GST, 80 nM UBC9-His, 200 µM ATP and diluted in Assay Buffer] and Antibody Reaction Mix [13.34 nM anti-GST XL665, 1.66 nM anti-His EuK and Diluted in Stop Buffer] were also prepared. Compounds were dissolved at 200x in DMSO in a 384-well plate. Serial dilutions were performed in DMSO for each compound, and then each concentration was diluted another 50-fold in Assay Buffer, to 4x the final concentration. 2.5 µL of each concentration was transferred into its own well in a 384-well plate. SAE1 was then diluted to 4x in Assay Buffer, and 2.5 µL of 4x SAE1 was mixed into each compound-containing well. After incubating for 15 minutes at room temperature, 5 µL of 2x Reaction Buffer was mixed into every well. Then after another 45 minutes at room temperature, 10 µL of Antibody Reaction Mix was added and mixed into every well. This plate was then read on an HTRF-compatible plate reader after 2 hours at room temperature, and again after sitting at room temperature overnight. [Final Component Concentrations: SAE1: 12.5 nM; SUMO-GST: 40 nM; UBC9-His: 40 nM; Anti-GST-XL665: 6.67 nM; Anti-His-EuK: 0.83 nM; and ATP: 100 µM ] Alternatively, the compounds are tested at a single concentration of 25 micromolar and the percent of control is measured.

[2] = system: SUMO 2/3 conjugates (sumoylation levels) in HCT-116 cells; experiment: HCT-116 4 hour cell assay, immunoblot of SUMO 2/3 conjugates; assay type: cell-based; details: 4 h treatment, Western blot, read-out: Cell HCT-116 Western SUMO 2/3 4 h IC50 (uM) Ave
Description: This protocol describes the procedures used to assess the effects of compounds of interest on sumoylation levels. Immunoblot of SUMO ⅔ conjugates are performed and IC50 curves are generated upon quantification of sumoylations bands. HCT-1 16 cells are seeded in a 12 well plate (500,000 cells/well). The following day the cells are treated with compounds of interest (resuspended in DMSO) for 4 hours (11 concentrations with a three-fold dilution; starting concentration 25 µM) Following 4 hours of incubation the cells are washed with ice cold PBS 1X and protein extraction is performed with RIPA buffer supplemented with phosphatases and proteases inhibitors, 25 mM of NEM and 50 units/mL of Benzonase . Samples undergo centrifugation at 13,000 RPM, 4° C., for 10 minutes and the supernatant is collected. Protein quantification is performed using BCA. Non-Reducing Laemmli Buffer is added to the samples. Samples are heated at 75° C. for 10 minutes, and are centrifuged for 3 minutes at 9000 RPM Nupage 4-12% Bis Tris gels and 1x MOPS buffer (Fisher Scientific) + 1x NuPAGE Antioxidant (Invitrogen) are used to perform the SDS-PAGE gel electrophoresis (20 to 40 µg of proteins are loaded in the gels). Proteins are then transferred to PVDF membranes and the level of total proteins are measured by staining with Revert Total Protein Stain and the fluorescent bands are acquired using the LI-COR FC (700 nm for 1 min) Membranes are blocked for 5 minutes with Bio-Rad Blocking Buffer and are subsequently incubated over night at 4° C. with Anti-Sumo 2-3 mAb (MBL #M114-3, 1:1000 in Bio-Rad Blocking Buffer, 0.2% Tween 20) Membranes are washed with 1X TBS-T (3 times for 5 minutes) and sumoylation is detected using Li-cor IRDye 800CW Goat anti-Mouse IgG secondary antibody (1:10,000 dilution) upon 1 hour of incubation in blocking buffer with 0.2% Tween 20 and 0.01% SDS. After the incubation, the membranes are washed with 1X TBS-T (3 times for 5 minutes). To visualize the fluorescent bands the membranes are scanned with LI-COR FC (700 nm for 1 min and […] for 2 mins) Sumoylation levels are quantified upon normalization with total protein levels, using the LI-COR Image Studio Lite 5.2 Software.

Sequence of SUMO activating enzyme (E1) (Q9UBT2 whole entry): as above
Sequence of SUMO activating enzyme (E1) (Q9UBE0 whole entry partner): as the sequence (Q9UBE0 whole entry partner) above

| Compound | IC50 [1] [nM] | IC50 [2] [µM] | IC50 (SAE1) [µM] |
| --- | --- | --- | --- |
| C=CC(=O)N1Cc2sc(Cl)cc2[C@H](c2ccccc2-c2cn(C(C)(C)C(N)=O)nc2C(F)(F)F)C1 [Compound 312] | < 10000 | 0.28 | 0.23 |
| C=CC(=O)N1Cc2sc(Cl)cc2C(c2ccccc2-c2cn(-c3ccncc3Cl)nc2C(F)(F)F)C1 (stereo not shown) [Compound 340] | – | – | 0.93 |
| C=CC(=O)N1Cc2sc(Cl)cc2[C@H](c2ccccc2-c2cnn(CC)c2CC)C1 [Compound 360] | – | 13.6 | 4.33 |

Now from value to compound, other results behind:

| IC50 [1] [nM] | IC50 [2] [µM] | Compound | IC50 (SAE1) [µM] |
| --- | --- | --- | --- |
| < 10000 | – | C=CC(=O)N1Cc2sc(Cl)cc2[C@H](c2ccccc2-c2cn(C(C)C)nc2C(F)(F)F)C1 [Compound 255] | – |
| – | 0.33 | C=CC(=O)N1Cc2sc(C(=C)C)cc2[C@H](c2ccccc2-c2cn(CC)nc2C(F)(F)F)C1 [Compound 318] | 0.29 |
| – | 0.39 | CCn1cc(-c2ccccc2[C@@H]2CN(C(=O)/C=C/CF)Cc3sc(Cl)cc32)c(C(F)(F)F)n1 [Compound 323] | 0.13 |
| – | 0.34 | C=CC(=O)N1Cc2sc(-c3ccco3)cc2[C@H](c2ccccc2-c2cn(CC)nc2C(F)(F)F)C1 [Compound 324] | 0.14 |

Source: US20230303584A1, “4,5,6,7-TETRAHYDROTHIENO[2,3-C]PYRIDINE SUMO INHIBITORS AND USES THEREOF” (SUVALENT THERAPEUTICS INC., priority 2020, published 2023)
